Data: ChEMBL document CHEMBL1201862, “PubChem BioAssay data set” (2004)
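Each compound was tested at five concentrations against cells in 96-well plates for 48 hours. Abbreviation: GI50, concentration required for 50% inhibition of growth.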 Active and inactive are the calls of the source. Cut-off read from the data, not from the text of the source: active = GI50 up to about 1.1 µM and inactive = higher.

Key:
Assay in all cases: DTP human tumour cell line panel, 48 h
[1] = system: 786-0
[2] = system: HCT-15
[3] = system: COLO 205
[4] = system: K562
[5] = system: NCI-H226
[6] = system: UO-31
[7] = system: LOX IMVI
[8] = system: SK-MEL-2
[9] = system: XF498
[10] = system: NCI-H522
[11] = system: KM12
[12] = system: HCC 2998
[13] = system: U-251
[14] = system: IGROV-1
[15] = system: OVCAR-4
[16] = system: KM-20L2
[17] = system: OVCAR-3
[18] = system: SNB-19
[19] = system: M19-MEL
[20] = system: RPMI-8226
[21] = system: MOLT-4
[22] = system: SK-MEL-5
[23] = system: A498
[24] = system: ACHN
[25] = system: SW-620
[26] = system: HOP-62
[27] = system: SF-295
[28] = system: DMS-114
[29] = system: SK-MEL-28
[30] = system: CCRF-CEM
[31] = system: DMS-273
[32] = system: NCI-H23
[33] = system: SF-539
[34] = system: OVCAR-8
[35] = system: SF-268
[36] = system: RXF 631
[37] = system: TK-10
[38] = system: DLD-1
[39] = system: LXFL 529
[40] = system: SN12C
[41] = system: HL-60
[42] = system: CAKI-1
[43] = system: UACC-62
[44] = system: M14
[45] = system: Malme-3M
[46] = system: OVCAR-5
[47] = system: NCI-H460
[48] = system: A549

## O=C1C2Cc3ccccc3CN2C(=O)N1CCN1CCCC1 (stereo not drawn)
[1]
  GI50: > 100 µM (inactive)
[2]
  GI50: > 100 µM
[3]
  GI50: > 100 µM (inactive)
[4]
  GI50: > 100 µM (inactive)
[5]
  GI50: > 100 µM (inactive)
[6]
  GI50: > 100 µM (inactive)
[7]
  GI50: > 100 µM (inactive)
[8]
  GI50: > 100 µM (inactive)
[9]
  GI50: > 100 µM (inactive)
[10]
  GI50: > 100 µM (inactive)
[11]
  GI50: > 100 µM (inactive)
[12]
  GI50: > 100 µM (inactive)
[13]
  GI50: > 100 µM (inactive)
[14]
  GI50: > 100 µM (inactive)
[15]
  GI50: > 100 µM (inactive)
[16]
  GI50: > 100 µM (inactive)
[17]
  GI50: > 100 µM (inactive)
[18]
  GI50: > 100 µM (inactive)
[19]
  GI50: > 100 µM (inactive)
[20]
  GI50: > 100 µM (inactive)
[21]
  GI50: > 100 µM (inactive)
[22]
  GI50: > 100 µM (inactive)
[23]
  GI50: > 100 µM (inactive)
[24]
  GI50: > 100 µM (inactive)
[25]
  GI50: > 100 µM (inactive)
[26]
  GI50: > 100 µM (inactive)
[27]
  GI50: > 100 µM (inactive)
[28]
  GI50: > 100 µM (inactive)
[29]
  GI50: > 100 µM (inactive)
[30]
  GI50: > 100 µM (inactive)
[31]
  GI50: > 100 µM (inactive)
[32]
  GI50: > 100 µM (inactive)
[33]
  GI50: > 100 µM (inactive)
[34]
  GI50: > 100 µM (inactive)
[35]
  GI50: > 100 µM (inactive)
[36]
  GI50: > 100 µM (inactive)
[37]
  GI50: > 100 µM (inactive)
[38]
  GI50: > 100 µM (inactive)
[39]
  GI50: > 100 µM (inactive)
[40]
  GI50: > 100 µM (inactive)
[41]
  GI50: > 100 µM (inactive)
[42]
  GI50: 64.1 µM (inactive)
[43]
  GI50: > 100 µM (inactive)
[44]
  GI50: > 100 µM (inactive)
[45]
  GI50: > 100 µM (inactive)
[46]
  GI50: > 100 µM (inactive)
[47]
  GI50: > 100 µM (inactive)
[48]
  GI50: > 100 µM (inactive)
